Measurements: patent publication US20250163104A1, “MACROCYCLIC IMMUNOMODULATORS” (priority 2021, published 2025)
Where a SMILES comes first, the peptide text is derived from it. Bridges are numbered along the chain shown (N, C = ends). [ ]: non-standard residue; d: D form. The star is where a group is joined. ξ: configuration not given here. Phe(4-COOH) = N[C@@H](Cc1ccc(C(=O)O)cc1)C(=O)O; Bip = N[C@@H](Cc1ccc(-c2ccccc2)cc1)C(=O)O; Phe(3-Me) = Cc1cccc(C[C@H](N)C(=O)O)c1; Val(3-OH) = CC(C)(O)[C@H](N)C(=O)O; 4Pal = N[C@@H](Cc1ccncc1)C(=O)O; 3Thi = N[C@@H](Cc1ccsc1)C(=O)O; Cha = N[C@@H](CC1CCCCC1)C(=O)O; Thr(3ξ) = CC(O)[C@H](N)C(=O)O; Carboxymethyl = O=C(O)C*; Orn = NCCC[C@H](N)C(=O)O; Dab = NCC[C@H](N)C(=O)O; NH(CH2)3NH2 = NCCCN*

Target: T1, human PD-1 / PD-L1-Ig binding on Jurkat cell line over-expressing human PD-1 (Jurkat-PD-1) (Homo sapiens, UniProt Q15116)
T1 construct: expressed in transfected cells; host or cells: Jurkat
T1 sequence (Q15116 25-288): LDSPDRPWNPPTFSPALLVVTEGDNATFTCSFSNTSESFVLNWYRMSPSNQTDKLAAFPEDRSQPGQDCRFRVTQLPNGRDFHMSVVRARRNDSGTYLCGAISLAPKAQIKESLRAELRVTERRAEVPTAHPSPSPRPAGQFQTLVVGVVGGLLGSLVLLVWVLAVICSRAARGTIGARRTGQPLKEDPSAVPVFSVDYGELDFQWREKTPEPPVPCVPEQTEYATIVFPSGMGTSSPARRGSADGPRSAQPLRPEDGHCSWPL
Experiment: Jurkat-PD-1 Cell Binding High-Content Screening Assay (CBA)
Format: cell-based
Settings: Jurkat-PD-1 cells, PE-labeled PD-L1-Ig 20 nM final; read-out: Jurkat HPD1_PDL1 IC50
In short: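 Jurkat cells over-expressing human PD-1, in DMEM/10% FCS, pre-incubated with compound 2 h at 37° C. PE-labeled human PD-L1-Ig (20 nM final) added for 1 h; cells fixed in paraformaldehyde with Hoechst 33342 nuclear stain, washed, and bound fluorescence quantified by high-content imaging.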

SMILES	IC50 [nM]
Cc1cccc(C[C@@H]2NC(=O)[C@H](CC(=O)O)NC(=O)[C@H](Cc3ccc(OCC(=O)O)cc3)NC(=O)[C@H](Cc3ccncc3)NC(=O)CSC[C@@H](C(=O)N[C@@H](CO)C(=O)NCCCN)NC(=O)[C@H](C(C)O)NC(=O)[C@H](C(C)(C)O)NC(=O)[C@H](CC3CCCCC3)NC(=O)[C@H](Cc3cnc[nH]3)NC(=O)[C@@H](CC(C)C)NC(=O)[C@H](CCCN)NC(=O)[C@H](Cc3ccc(OCC(=O)O)cc3)NC(=O)[C@H](Cc3ccc(-c4ccccc4)cc3)NC(=O)[C@H](Cc3ccc(OCC(=O)O)cc3)NC2=O)c1 (stereo partly drawn) [Compound 2647] ({CH2CO}-[4Pal]Y(Carboxymethyl)D[Phe(3-Me)]Y(Carboxymethyl)[Bip]Y(Carboxymethyl)[Orn][dL]H[Cha][Val(3-OH)][Thr(3ξ)]CS-{NH(CH2)3NH2}; thioether N-14)	22.8
Cc1cccc(C[C@@H]2NC(=O)[C@H](CC(=O)O)NC(=O)[C@H](Cc3ccc(OCC(=O)O)cc3)NC(=O)[C@H](CCN)NC(=O)CSC[C@@H](C(=O)N[C@@H](CO)C(=O)NCCCN)NC(=O)[C@H](C(C)O)NC(=O)[C@H](C(C)(C)O)NC(=O)[C@H](CC3CCCCC3)NC(=O)[C@H](Cc3cnc[nH]3)NC(=O)[C@@H](CC(C)C)NC(=O)[C@H](CCCN)NC(=O)[C@H](Cc3ccc(OCC(=O)O)cc3)NC(=O)[C@H](Cc3ccc(-c4ccccc4)cc3)NC(=O)[C@H](Cc3ccc(OCC(=O)O)cc3)NC2=O)c1 (stereo partly drawn) [Compound 2648] ({CH2CO}-[Dab]Y(Carboxymethyl)D[Phe(3-Me)]Y(Carboxymethyl)[Bip]Y(Carboxymethyl)[Orn][dL]H[Cha][Val(3-OH)][Thr(3ξ)]CS-{NH(CH2)3NH2}; thioether N-14)	98
Cc1cccc(C[C@@H]2NC(=O)[C@H](CC(=O)O)NC(=O)[C@H](Cc3ccc(OCC(=O)O)cc3)NC(=O)[C@H](Cc3cnc[nH]3)NC(=O)CSC[C@@H](C(=O)N[C@@H](CCN)C(N)=O)NC(=O)[C@H](C(C)O)NC(=O)[C@H](C(C)(C)O)NC(=O)[C@H](CC3CCCCC3)NC(=O)[C@H](CCN)NC(=O)[C@@H](CC(C)C)NC(=O)[C@H](CCCN)NC(=O)[C@H](Cc3ccc(OCC(=O)O)cc3)NC(=O)[C@H](Cc3ccc(-c4ccccc4)cc3)NC(=O)[C@H](Cc3ccc(OCC(=O)O)cc3)NC2=O)c1 (stereo partly drawn) [Compound 2649] ({CH2CO}-HY(Carboxymethyl)D[Phe(3-Me)]Y(Carboxymethyl)[Bip]Y(Carboxymethyl)[Orn][dL][Dab][Cha][Val(3-OH)][Thr(3ξ)]C[Dab]-NH2; thioether N-14)	7.2
Cc1cccc(C[C@@H]2NC(=O)[C@H](CC(=O)O)NC(=O)[C@H](Cc3ccc(OCC(=O)O)cc3)NC(=O)[C@H](Cc3cnc[nH]3)NC(=O)CSC[C@@H](C(=O)N[C@H](C)C(N)=O)NC(=O)[C@H](C(C)O)NC(=O)[C@H](C(C)(C)O)NC(=O)[C@H](CC3CCCCC3)NC(=O)[C@H](CCN)NC(=O)[C@@H](CC(C)C)NC(=O)[C@H](CCCN)NC(=O)[C@H](Cc3ccc(OCC(=O)O)cc3)NC(=O)[C@H](Cc3ccc(-c4ccccc4)cc3)NC(=O)[C@H](Cc3ccc(OCC(=O)O)cc3)NC2=O)c1 (stereo partly drawn) [Compound 2650] ({CH2CO}-HY(Carboxymethyl)D[Phe(3-Me)]Y(Carboxymethyl)[Bip]Y(Carboxymethyl)[Orn][dL][Dab][Cha][Val(3-OH)][Thr(3ξ)]C[dA]-NH2; thioether N-14)	38.5
Cc1cccc(C[C@@H]2NC(=O)[C@H](CC(=O)O)NC(=O)[C@H](Cc3ccc(O)cc3)NC(=O)[C@H](Cc3cnc[nH]3)NC(=O)CSC[C@@H](C(=O)N[C@H](C)C(N)=O)NC(=O)[C@H](CO)NC(=O)[C@H](C(C)(C)O)NC(=O)[C@H](CC3CCCCC3)NC(=O)[C@H](CCN)NC(=O)[C@@H](CC(C)C)NC(=O)[C@H](CCCN)NC(=O)[C@H](Cc3ccc(OCC(=O)O)cc3)NC(=O)[C@H](Cc3ccc(-c4ccccc4)cc3)NC(=O)[C@H](Cc3ccc(OCC(=O)O)cc3)NC2=O)c1 [Compound 2652] ({CH2CO}-HYD[Phe(3-Me)]Y(Carboxymethyl)[Bip]Y(Carboxymethyl)[Orn][dL][Dab][Cha][Val(3-OH)]SC[dA]-NH2; thioether N-14)	29.6
Cc1cccc(C[C@@H]2NC(=O)[C@H](CC(=O)O)NC(=O)[C@H](Cc3ccc(OCC(=O)O)cc3)NC(=O)[C@H](CCN)NC(=O)CSC[C@@H](C(=O)N[C@@H](CCN)C(N)=O)NC(=O)[C@H](CO)NC(=O)[C@H](C(C)(C)O)NC(=O)[C@H](CC3CCCCC3)NC(=O)[C@H](Cc3cnc[nH]3)NC(=O)[C@@H](CC(C)C)NC(=O)[C@H](CCCN)NC(=O)[C@H](Cc3ccc(OCC(=O)O)cc3)NC(=O)[C@H](Cc3ccc(-c4ccccc4)cc3)NC(=O)[C@H](Cc3ccc(OCC(=O)O)cc3)NC2=O)c1 [Compound 2653] ({CH2CO}-[Dab]Y(Carboxymethyl)D[Phe(3-Me)]Y(Carboxymethyl)[Bip]Y(Carboxymethyl)[Orn][dL]H[Cha][Val(3-OH)]SC[Dab]-NH2; thioether N-14)	7.6
Cc1cccc(C[C@@H]2NC(=O)[C@H](CC(=O)O)NC(=O)[C@H](Cc3ccc(OCC(=O)O)cc3)NC(=O)[C@H](Cc3ccsc3)NC(=O)CSC[C@@H](C(=O)N[C@H](C)C(N)=O)NC(=O)[C@H](CO)NC(=O)[C@H](C(C)(C)O)NC(=O)[C@H](CC3CCCCC3)NC(=O)[C@H](CCN)NC(=O)[C@@H](CC(C)C)NC(=O)[C@H](CCCN)NC(=O)[C@H](Cc3ccc(OCC(=O)O)cc3)NC(=O)[C@H](Cc3ccc(-c4ccccc4)cc3)NC(=O)[C@H](Cc3ccc(OCC(=O)O)cc3)NC2=O)c1 [Compound 2654] ({CH2CO}-[3Thi]Y(Carboxymethyl)D[Phe(3-Me)]Y(Carboxymethyl)[Bip]Y(Carboxymethyl)[Orn][dL][Dab][Cha][Val(3-OH)]SC[dA]-NH2; thioether N-14)	6.4
Cc1cccc(C[C@@H]2NC(=O)[C@H](CC(=O)O)NC(=O)[C@H](Cc3ccc(C(=O)O)cc3)NC(=O)[C@H](Cc3ccncc3)NC(=O)CSC[C@@H](C(=O)N[C@H](CC(N)=O)C(N)=O)NC(=O)[C@H](CO)NC(=O)[C@H](C(C)(C)O)NC(=O)[C@H](CC3CCCCC3)NC(=O)[C@H](CCN)NC(=O)[C@@H](CC(C)C)NC(=O)[C@H](CCCN)NC(=O)[C@H](Cc3ccc(C(=O)O)cc3)NC(=O)[C@H](Cc3ccc(-c4ccccc4)cc3)NC(=O)[C@H](Cc3ccc(OCC(=O)O)cc3)NC2=O)c1 [Compound 2655] ({CH2CO}-[4Pal][Phe(4-COOH)]D[Phe(3-Me)]Y(Carboxymethyl)[Bip][Phe(4-COOH)][Orn][dL][Dab][Cha][Val(3-OH)]SC[dN]-NH2; thioether N-14)	110
Cc1cccc(C[C@@H]2NC(=O)[C@H](CC(=O)O)NC(=O)[C@H](Cc3ccc(C(=O)O)cc3)NC(=O)[C@H](Cc3ccsc3)NC(=O)CSC[C@@H](C(=O)N[C@H](CC(N)=O)C(N)=O)NC(=O)[C@H](CO)NC(=O)[C@H](C(C)(C)O)NC(=O)[C@H](CC3CCCCC3)NC(=O)[C@H](CCN)NC(=O)[C@@H](CC(C)C)NC(=O)[C@H](CCCN)NC(=O)[C@H](Cc3ccc(C(=O)O)cc3)NC(=O)[C@H](Cc3ccc(-c4ccccc4)cc3)NC(=O)[C@H](Cc3ccc(OCC(=O)O)cc3)NC2=O)c1 [Compound 2656] ({CH2CO}-[3Thi][Phe(4-COOH)]D[Phe(3-Me)]Y(Carboxymethyl)[Bip][Phe(4-COOH)][Orn][dL][Dab][Cha][Val(3-OH)]SC[dN]-NH2; thioether N-14)	25
